Measurements taken from US9113629B2, “4-amino-6-(4-substituted-phenyl)-picolinates and 6-amino-2-(4-substituted-phenyl)-pyrimidine-4-carboxylates and their use as herbicides” (DOW AGROSCIENCES LLC, priority 2013, dated 2015).
Like-named read-outs stand apart in the source and are kept apart here.

Experiments:
[1] = system: PAPRH: common poppy (Papaver rhoeas); experiment: Post-emergent Test III, herbicidal activity in wheat and barley; assay type: in vivo; conditions: for pest or weed control at 35 g/ha / pest or weed control at 70 g/ha / pest or weed control at 140 g/ha: Papaver rhoeas, post-emergence, 504 h, read-out: Visual Growth Reduction (%) 21 Days After Application PAPRH; for pest or weed control at 35 g/ha: 35 g ai/ha; for pest or weed control at 70 g/ha: 70 g ai/ha; for GR50 PAPRH / GR80 PAPRH: probit analysis; for pest or weed control at 140 g/ha: 140 g ai/ha
Summary of the method: (§1)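 GR20, GR50, GR80 and GR90 come from probit analysis of visual injury scores (0 = none, 100 = complete kill) taken 21 d after treatment. Foliar application was by track sprayer delivering 187 L/ha at five rates, from high down to 1/16×, onto greenhouse plants at the 2–3 leaf stage, with solvent-blank controls.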

[2] = system: ALOMY: black-grass (Alopecurus myosuroides); experiment: as above; assay type: in vivo; conditions: for pest or weed control at 35 g/ha / pest or weed control at 70 g/ha / pest or weed control at 140 g/ha: Alopecurus myosuroides, post-emergence, 504 h, read-out: Visual Growth Reduction (%) 21 Days After Application ALOMY; for pest or weed control at 35 g/ha: 35 g ai/ha; for pest or weed control at 70 g/ha: 70 g ai/ha; for pest or weed control at 140 g/ha: 140 g ai/ha; for GR50 ALOMY / GR80 ALOMY: probit analysis, 21 days after application; for GR50 ALOMY: dose for growth reduction of 50 percent; for GR80 ALOMY: dose for growth reduction of 80 percent
Summary of the method: as §1

[3] = Table 8, dose for 50 percent growth reduction, 21 d
[4] = Table 8, dose for 80 percent growth reduction, 21 d
[5] = dose for growth reduction of 50 percent, 21 days after application
[6] = dose for growth reduction of 80 percent, 21 days after application

| SMILES | pest or weed control at 35 g/ha ([1]; Table 8, post-emergent, 21 d) [%] | pest or weed control at 70 g/ha ([1]; Table 8, post-emergent, 21 d) [%] | GR50 PAPRH [1, 3] [g ai/ha] | GR80 PAPRH [1, 4] [g ai/ha] | pest or weed control at 35 g/ha [2] [%] | pest or weed control at 70 g/ha [2] [%] | pest or weed control at 140 g/ha [2] [%] | GR50 ALOMY [2] [g ai/ha] | GR80 ALOMY [2] [g ai/ha] | pest or weed control at 35 g/ha [1] [%] | pest or weed control at 70 g/ha [1] [%] | pest or weed control at 140 g/ha [1] [%] | GR50 PAPRH [1, 5] [g ai/ha] | GR80 PAPRH [1, 6] [g ai/ha] | pest or weed control at 140 g/ha ([1]; Table 8, post-emergent, 21 d) [%] |
| --- | --- | --- | --- | --- | --- | --- | --- | --- | --- | --- | --- | --- | --- | --- | --- |
| Nc1cc(-c2cc(F)c(Br)cc2F)nc(C(=O)O)c1Cl [Compound 3] | 95 to 100 | 95 to 100 | 1 | 1 |  |  |  |  |  |  |  |  |  |  |  |
| Nc1c(F)c(-c2ccc(Br)cc2)nc(C(=O)O)c1Cl [Compound 20] |  |  |  |  | 75 to 84 | 75 to 84 | 75 to 84 | 21 | 72 | 95 to 100 | 95 to 100 | 95 to 100 | 1 | 1 |  |
| COC(=O)c1nc(-c2ccc(I)c(F)c2)nc(N)c1OC [Compound 27, Methyl 6-amino-2-(3-fluoro-4-iodophenyl)-5-methoxypyrimidine-4-carboxylate] | 95 to 100 | 95 to 100 | 1 | 1 |  |  |  |  |  |  |  |  |  |  |  |
| COc1c(N)nc(-c2ccc(I)c(F)c2)nc1C(=O)O [Compound 37, 6-Amino-2-(3-fluoro-4-iodophenyl)-5-methoxypyrimidine-4-carboxylic acid] | 95 to 100 | 95 to 100 | 1 | 1 |  |  |  |  |  |  |  |  |  |  |  |
| N#Cc1ccc(-c2nc(C(=O)O)c(Cl)c(N)c2F)cc1 [Compound 39] |  |  |  |  | 0 to 29 | 45 to 59 | 45 to 59 | 111 | >140 | 95 to 100 | 95 to 100 | 95 to 100 | 0 | 0 |  |
| Nc1c(Cl)c(C(=O)O)nc(-c2ccc(Br)c(F)c2)c1Cl [Compound 43, 4-Amino-6-(4-bromo-3-fluorophenyl)-3,5-dichloropicolinic acid] | 95 to 100 | 95 to 100 | 1 | 1 |  |  |  |  |  |  |  |  |  |  |  |
| Nc1c(F)c(-c2ccc(I)cc2)nc(C(=O)O)c1Cl [Compound 45, 4-amino-3-chloro-5-fluoro-6-(4-iodophenyl)picolinic acid] |  |  |  |  | 75 to 84 | 85 to 94 | 95 to 100 | 9 | 27 | 95 to 100 | 95 to 100 | 95 to 100 | 1 | 1 |  |
| COC(=O)c1nc(-c2ccc(I)c(F)c2)c(C)c(N)c1Cl [Compound 79, Methyl 4-amino-3-chloro-6-(3-fluoro-4-iodophenyl)-5-methylpicolinate] | 95 to 100 | 95 to 100 | 1 | 1 |  |  |  |  |  |  |  |  |  |  |  |
| COC(=O)c1nc(-c2ccc(OC(F)F)cc2)c(F)c(N)c1Cl [Compound 85] |  |  |  |  | 0 to 29 | 0 to 29 | 0 to 29 | >140 | >140 | 85 to 94 | 95 to 100 | 95 to 100 | 1 | 3 |  |
| COC(=O)c1nc(-c2ccc(Br)c(F)c2F)c(F)c(N)c1Cl [Compound 109, methyl 4-amino-6-(4-bromo-2,3-difluorophenyl)-3-chloro-5-fluoropicolinate] |  |  |  |  | 60 to 74 | 75 to 84 |  | 22 | 88 |  |  |  |  |  |  |
| COC(=O)c1nc(-c2ccc(Br)c(F)c2F)cc(N)c1Cl [Compound 114, methyl 4-amino-6-(4-bromo-2,3-difluorophenyl)-3-chloropicolinate] |  |  |  |  | 0 to 29 | 0 to 29 | 0 to 29 | >140 | >140 | 95 to 100 | 95 to 100 | 95 to 100 | 1 | 4 |  |
| COC(=O)c1nc(-c2ccc(I)cc2)c(F)c(N)c1Cl [Compound 118, Methyl 4-amino-6-(4-iodophenyl)-3-chloro-5-fluoropicolinate] |  |  |  |  | 60 to 74 | 75 to 84 | 85 to 94 | 25 | 60 | 95 to 100 | 95 to 100 | 95 to 100 | 1 | 1 |  |
| Nc1cc(-c2ccc(I)cc2F)nc(C(=O)O)c1Cl [Compound 124] | 95 to 100 | 95 to 100 | 1 | 1 |  |  |  |  |  |  |  |  |  |  |  |
| COC(=O)c1nc(-c2ccc(C#N)c(F)c2)c(F)c(N)c1Cl [Compound 135, methyl 4-amino-3-chloro-6-(4-cyano-3-fluorophenyl)-5-fluoropicolinate] | 85 to 94 | 85 to 94 | 1 | 1 |  |  |  |  |  |  |  |  |  |  | 95 to 100 |
| Nc1c(Cl)c(C(=O)O)nc(-c2ccc(I)c(F)c2)c1Cl [Compound 145, 4-Amino-3,5-dichloro-6-(3-fluoro-4-iodophenyl)picolinic acid] | 95 to 100 | 95 to 100 | 1 | 1 |  |  |  |  |  |  |  |  |  |  | 95 to 100 |
| Nc1c(F)c(-c2ccc(Br)c(F)c2F)nc(C(=O)O)c1Cl [Compound 147] |  |  |  |  | 60 to 74 | 85 to 94 | 85 to 94 | 20 | 47 |  |  |  |  |  |  |
| COC(=O)c1nc(-c2ccc(Br)c(F)c2)nc(N)c1OC [Compound 171, Methyl 6-amino-2-(4-bromo-3-fluorophenyl)-5-methoxypyrimidine-4-carboxylate] | 95 to 100 | 95 to 100 | 1 | 1 |  |  |  |  |  |  |  |  |  |  |  |
| COC(=O)c1nc(-c2ccc(C(F)F)cc2)c(F)c(N)c1Cl [Compound 209] |  |  |  |  | 0 to 29 | 0 to 29 |  | >140 | >140 |  |  |  |  |  |  |
| C=Cc1c(C(=O)O)nc(-c2ccc(Cl)c(F)c2)c(F)c1N [Compound 214] |  |  |  |  | 30 to 44 | 45 to 59 | 30 to 44 | 95 | >140 |  |  |  |  |  |  |
